Article PMC6664820, “Novel natural and synthetic inhibitors of solute carriers SGLT1 and SGLT2” (Pharmacology Research & Perspectives, 2019)
Where a name gives a salt, the structure may show the parent alone. Read-outs that look alike come from different tables or passages of the source.

What was measured:
hSGLT2 = target: T1, hSGLT2 (Homo sapiens, UniProt P31639); experiment: SGLT2 inhibition assay for validation of screening hits and similar compounds (1‐NBD‐glucose uptake, CHO‐hSGLT2 cells); assay type: cell-based; set-up: activity: dose or concentration left out as unconfirmed; details: for SGLT2/SGLT1 ACTIVITY RATIO, first concentration / SGLT2/SGLT1 ACTIVITY RATIO, second concentration: ratio of normalized SGLT2 to SGLT1 activity; for activity: compound, mean, normalized 1-NBD-glucose uptake, CHO-hSGLT2 cells
T1 sequence (P31639 1-672): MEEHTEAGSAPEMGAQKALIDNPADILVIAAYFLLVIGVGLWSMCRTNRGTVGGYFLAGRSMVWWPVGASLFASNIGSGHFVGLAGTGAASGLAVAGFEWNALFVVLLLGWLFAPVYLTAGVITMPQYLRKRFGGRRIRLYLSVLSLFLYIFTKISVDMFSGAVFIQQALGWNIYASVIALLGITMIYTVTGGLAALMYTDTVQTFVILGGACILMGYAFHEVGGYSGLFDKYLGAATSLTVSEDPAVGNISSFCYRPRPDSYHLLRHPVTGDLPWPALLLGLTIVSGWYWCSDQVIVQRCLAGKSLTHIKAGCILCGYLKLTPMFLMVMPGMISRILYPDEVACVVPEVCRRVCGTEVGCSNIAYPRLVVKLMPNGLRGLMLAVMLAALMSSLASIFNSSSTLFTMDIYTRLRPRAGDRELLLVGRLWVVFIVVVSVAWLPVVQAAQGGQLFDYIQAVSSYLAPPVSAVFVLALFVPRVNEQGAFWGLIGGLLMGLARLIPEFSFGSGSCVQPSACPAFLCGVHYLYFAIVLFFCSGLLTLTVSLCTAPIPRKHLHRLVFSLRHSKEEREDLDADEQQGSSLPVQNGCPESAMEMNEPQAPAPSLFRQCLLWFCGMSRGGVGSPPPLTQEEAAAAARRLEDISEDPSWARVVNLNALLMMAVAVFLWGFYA

CHO‐hSGLT1/2 cells = experiment: Cytotoxicity assay (ToxiLight, adenylate kinase leakage into CHO‐SGLT1/2 inhibition assay media); set-up: CYTOTOXICITY / CY[…], mean / CYTOTOXICITY (% of vehicle control) Mean / CYTOTOXICITY, mean / CY[…] (% of vehicle control) Mean: dose or concentration left out as unconfirmed; details: for CYTOTOXICITY, mean: ToxiLight, adenylate kinase leakage;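 as to all read-outs here: bioluminescent read-out of adenylate kinase released from lysed cells into the medium, given relative to DMSO vehicle control defined as 0%, higher meaning more cytolysis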
[1] = ratio of normalized SGLT2 to SGLT1 activity at 5 uM

**Q.** With `OC(CCN1CCCCC1)(c1ccccc1)C1CCCCC1` (racemic) [(±)-Trihexyphenidyl HCl] as the compound, how does the “SGLT2/SGLT1 ACTIVITY RATIO 5 uM Mean” value (hSGLT2) read?
**A.** 1.0

**Q.** What about the “SGLT2/SGLT1 ACTIVITY RATIO 50 mM Mean” value (hSGLT2) of the same compound?
**A.** 1.3

**Q.** What about the “CY[…] (% of vehicle control) Mean” value (CHO‐hSGLT1/2 cells) of the same compound?
**A.** -12 % of vehicle control

**Q.** `CC(=O)O[C@H]1C[C@@H](OC(C)=O)[C@@]2(C)CO[C@H]3[C@@H](O)[C@@]4(C)C5=CC[C@@H](c6ccoc6)[C@]5(C)CC[C@@H]4[C@]1(C)[C@@H]32` [1,3-Diacetylvilasinin] was tested. Which “SGLT2/SGLT1 ACTIVITY RATIO, first concentration” value (hSGLT2) did it give?
**A.** 1.1

**Q.** And the “SGLT2/SGLT1 ACTIVITY RATIO, second concentration” value (hSGLT2)?
**A.** 1.1

**Q.** What about the “CYTOTOXICITY, mean” value (CHO‐hSGLT1/2 cells) of the same compound?
**A.** -18

**Q.** How did the “SGLT2/SGLT1 ACTIVITY RATIO, first concentration” value (hSGLT2) turn out when `CC1(C)C(=O)C=C[C@@]2(C)C1=C(O)C(=O)[C@]1(C)[C@@H]2[C@@H](O)C[C@@]2(C)[C@H](c3ccoc3)C[C@H]3O[C@]321` [11beta-Hydroxycedrelone] was run?
**A.** 1.7

**Q.** And the “SGLT2/SGLT1 ACTIVITY RATIO, second concentration” value (hSGLT2)?
**A.** 1.2

**Q.** What about the “CYTOTOXICITY, mean” value (CHO‐hSGLT1/2 cells) of the same compound?
**A.** -13

**Q.** For `CN1[C@@H]2CC[C@H]1C[C@@H](OC(c1ccccc1)c1ccccc1)C2` [Benztropine mesylate], which activity (hSGLT2) is on record?
**A.** 73%

**Q.** What about the “CY[…] (% of vehicle control) Mean” value (CHO‐hSGLT1/2 cells) of the same compound?
**A.** -10 % of vehicle control

**Q.** Which results are given for `CC(C)COCC(CN(Cc1ccccc1)c1ccccc1)N1CCCC1` (stereo not shown) [Bepridil HCl]?
**A.** activity (hSGLT2): 65%; SGLT2/SGLT1 ACTIVITY RATIO 5 uM Mean (hSGLT2; [1]): 1.1; CY[…] (% of vehicle control) Mean (CHO‐hSGLT1/2 cells): 3.67 % of vehicle control

**Q.** Which results are given for `CC1(C)C(=O)C=C[C@@]2(C)C1=C(O)C(=O)[C@]1(C)[C@@H]2CC[C@@]2(C)[C@H](c3ccoc3)C[C@H]3O[C@]321` [Cedrelone]?
**A.** SGLT2/SGLT1 ACTIVITY RATIO, first concentration (hSGLT2): 1.2; SGLT2/SGLT1 ACTIVITY RATIO, second concentration (hSGLT2): 1.1; CYTOTOXICITY, mean (CHO‐hSGLT1/2 cells): -26

**Q.** With `CNCCCN1c2ccccc2CCc2ccccc21` [Desipramine HCl] as the compound, how does the “SGLT2/SGLT1 ACTIVITY RATIO 5 uM Mean” value (hSGLT2; [1]) read?
**A.** 0.759

**Q.** And the “CY[…] (% of vehicle control) Mean” value (CHO‐hSGLT1/2 cells)?
**A.** -19 % of vehicle control

**Q.** For `CCN(CC)CCOC(=O)C(c1ccccc1)C1CCCCC1` (stereo not shown) [Drofenine HCl], which activity (hSGLT2) is on record?
**A.** 72%

**Q.** What about the “CY[…] (% of vehicle control) Mean” value (CHO‐hSGLT1/2 cells) of the same compound?
**A.** 1.71 % of vehicle control

**Q.** Which activity (hSGLT2) does the source give for `COc1cc2c(=O)c(-c3ccc(O)cc3)coc2cc1O[C@@H]1O[C@H](CO)[C@@H](O)[C@H](O)[C@H]1O` [Glycitin] here?
**A.** 106%

**Q.** What about the “SGLT2/SGLT1 ACTIVITY RATIO 5 uM Mean” value (hSGLT2; [1]) of the same compound?
**A.** 1.1

**Q.** And the “CYTOTOXICITY (% of vehicle control) Mean” value (CHO‐hSGLT1/2 cells)?
**A.** -22 % of vehicle control

**Q.** Which activity (hSGLT2) does the source give for `O=C1C[C@@H](c2ccc(O[C@@H]3O[C@H](CO)[C@@H](O)[C@H](O)[C@H]3O)cc2)Oc2cc(O)ccc21` [Liquiritin] here?
**A.** 101%

**Q.** What about the “SGLT2/SGLT1 ACTIVITY RATIO 5 uM Mean” value (hSGLT2; [1]) of the same compound?
**A.** 1.0

**Q.** And the “CYTOTOXICITY (% of vehicle control) Mean” value (CHO‐hSGLT1/2 cells)?
**A.** -10 % of vehicle control

**Q.** `CN1CCOC(c2ccccc2)c2ccccc2C1` (stereo not shown) [Nefopam HCl] was tested. Which “SGLT2/SGLT1 ACTIVITY RATIO 5 uM Mean” value (hSGLT2; [1]) did it give?
**A.** 0.9

**Q.** And the “CY[…] (% of vehicle control) Mean” value (CHO‐hSGLT1/2 cells)?
**A.** -25 % of vehicle control

**Q.** What does the source list for `CC1(C)OC(=O)C=C[C@]2(C)[C@H]3CC[C@@]4(C)[C@H](c5ccoc5)OC(=O)[C@H]5O[C@]54[C@]3(C)C(=O)C[C@@H]12` [Obacunone]?
**A.** SGLT2/SGLT1 ACTIVITY RATIO, first concentration (hSGLT2): 1.2; SGLT2/SGLT1 ACTIVITY RATIO, second concentration (hSGLT2): 1.1; CYTOTOXICITY, mean (CHO‐hSGLT1/2 cells): -21

**Q.** What does the source list for `CC=C(C)C(=O)O[C@H]1c2c(ccc3ccc(=O)oc23)OC(C)(C)[C@H]1OC(=O)C(C)=CC` [Praeruptorin B - JR MediChem]?
**A.** SGLT2/SGLT1 ACTIVITY RATIO 5 uM Mean (hSGLT2; [1]): 0.9; CYTOTOXICITY (% of vehicle control) Mean (CHO‐hSGLT1/2 cells): -19 % of vehicle control

**Q.** Which results are given for `CC(=O)O[C@@H]1C[C@H](O)[C@@]23CO[C@@H](O)[C@]1(C)[C@@H]2C[C@@H](O)[C@]1(C)[C@@H]3C(=O)[C@H](OC(C)=O)[C@@]2(C)[C@H](c3ccoc3)C[C@H]3O[C@]321` [Toosendanin]?
**A.** SGLT2/SGLT1 ACTIVITY RATIO, first concentration (hSGLT2): 1.0; SGLT2/SGLT1 ACTIVITY RATIO, second concentration (hSGLT2): 1.0; CYTOTOXICITY, mean (CHO‐hSGLT1/2 cells): -4.53

**Q.** With `CC(CN(C)C)CN1c2ccccc2CCc2ccccc21` (stereo not shown) [Trimipramine maleate] as the compound, how does the activity (hSGLT2) read?
**A.** 87%

**Q.** What about the “SGLT2/SGLT1 ACTIVITY RATIO 5 uM Mean” value (hSGLT2; [1]) of the same compound?
**A.** 1.0

**Q.** What about the “CY[…] (% of vehicle control) Mean” value (CHO‐hSGLT1/2 cells) of the same compound?
**A.** -9 % of vehicle control

**Q.** For `CC1(C)C(=O)C=C[C@@]2(C)C1=C(O)C(=O)[C@]1(C)[C@@H]2[C@@H](O)CC2=C(c3ccoc3)C[C@@H](O)[C@]21C` [Walsuronoid B], which “SGLT2/SGLT1 ACTIVITY RATIO, first concentration” value (hSGLT2) is on record?
**A.** 0.9

**Q.** And the “SGLT2/SGLT1 ACTIVITY RATIO, second concentration” value (hSGLT2)?
**A.** 1.0

**Q.** What about the “CYTOTOXICITY, mean” value (CHO‐hSGLT1/2 cells) of the same compound?
**A.** -23
